Results reported in US9422359B2, “GPCR fusion protein containing an N-terminal autonomously folding stable domain, and crystals of the same” (The Board of Trustees of the Leland Stanford Junior …, priority 2011, dated 2016).
One block for each compound: values may come before it.

Key:
R:G complex = molecular target: T1, R:G complex (Bos taurus, UniProt P04896); assay: Analytical gel filtration, stability of the R:G complex
T1 construct: HA signal peptide (N); made in house; host or cells: receptor: Sf9 insect cells (baculovirus); Gs subunits: HighFive insect cells
T1 sequence (P04896 1-380 isoform P04896-2, one chain of several): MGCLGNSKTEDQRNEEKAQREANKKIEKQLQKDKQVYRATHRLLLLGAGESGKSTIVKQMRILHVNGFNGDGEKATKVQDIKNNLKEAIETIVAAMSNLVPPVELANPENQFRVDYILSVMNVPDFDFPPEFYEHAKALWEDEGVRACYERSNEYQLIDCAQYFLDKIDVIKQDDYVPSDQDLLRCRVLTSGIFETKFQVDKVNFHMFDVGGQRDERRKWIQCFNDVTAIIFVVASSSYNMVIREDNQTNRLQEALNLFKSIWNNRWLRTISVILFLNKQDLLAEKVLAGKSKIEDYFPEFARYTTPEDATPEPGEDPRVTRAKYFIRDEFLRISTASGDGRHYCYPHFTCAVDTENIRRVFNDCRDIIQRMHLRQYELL
Protocol: […]. Nature 2011 469, 175-180). To maintain the high-affinity nucleotide-free state of the complex, apyrase (25 mU/ml, NEB) was added after 90 min to hydrolyze residual GDP released from G ? supon binding to the receptor. GMP resulting from hydrolysis of GDP by apyrase has very poor affinity for the G protein in the complex.
At this stage the mixture contains the R:G complex, non-functional Gs, and an excess of β2AR. […] To prevent cysteine bridge-mediated aggregation of R:G complexes, 100 μM TCEP was added to the eluted protein prior to concentrating it with a 50 kDa MWCO Millipore concentrator. Of note, it was discovered later that crystal growth improved at even higher TCEP concentrations (above 1 mM) compared to 100 μM TCEP, and that the integrity of the R:G complex in MNG-3 was stable to 10 mM TCEP as measured by gel filtration analysis (FIG. 21C). In contrast, DDM-solubilized β2AR loses its ability to bind the high-affinity antagonist ^3H-dihydroalprenolol in 10 mM TCEP (data not shown), probably due to disruption of extracellular disulfide bonds. Iodoacetamide could not be used to block reactive cysteines on Gs alpha and beta subunits as it caused dissociation of the R:G complex (figure S9b). […] Peak fractions were pooled (FIG. 17b) and concentrated to approximately 90 mg ml^−1 with a 100 kDa MWCO Viva-spin concentrator and analyzed by SDS-PAGE/Coomassie brilliant blue staining (FIG. 17a) and gel filtration (FIG. 17c). To confirm a pure, homogeneous, and dephosphorylated preparation, the R:G complex was routinely analyzed by ion exchange chromatography (FIG. 17d).

T4L-β2AR = molecular target: T2, T4L-β2AR (Homo sapiens, UniProt P07550, M96T/M98T/N187E); assay: Ligand binding affinity of T4L-β2AR with M96T, M98T mutations
T2 construct: HA signal peptide (N, cleaved yes); made in house; host or cells: Sf9 insect cells, recombinant baculovirus
From the text: To increase the probability of obtaining crystals of the R:G complex two strategies were used to increase the polar surface area on the extracellular side of the receptor. […] The PNGaseF-inaccessible glycosylation site of the β2AR at N187 was mutated to Glu.

SMILES: Nc1nc2c(ncn2[C@@H]2O[C@H](COP(=O)(O)OP(=O)(O)O)[C@@H](O)[C@H]2O)c(=O)[nH]1 [GDP]
effect on the R:G complex (R:G complex; nucleotides at 0.1 mM): cause dissociation of the R:G complex

effect on the R:G complex (R:G complex; nucleotides at 0.1 mM): cause dissociation of the R:G complex
SMILES: Nc1nc2c(ncn2[C@@H]2O[C@H](COP(=O)(O)OP(=O)(O)OP(O)(O)=S)[C@@H](O)[C@H]2O)c(=O)[nH]1 [GTPγS]

SMILES: CCCc1ccccc1OCC(O)CNC(C)C (centres unmarked) [[3H]-Dihydroalprenolol, dihydroalprenolol]
effect of the threonine mutations (M96T, M98T) on ligand binding affinity (T4L-β2AR): did not affect ligand binding affinity

SMILES: NC(=O)CI [iodoacetamide]
effect on the R:G complex (R:G complex; 5 mM for 20 hrs at 20° C.): led to dissociation of the complex

SMILES: O=P(O)(O)OP(=O)(O)O [pyrophosphate]
effect on the R:G complex (R:G complex; phosphates used at 5 mM): do not cause disruption of the complex
